Source: ChEMBL document CHEMBL1146410, “Bioactive Terpenoids from Octocorallia. 4. Three New Cembrane-Type Diterpenoids from the Soft Coral Lobophytum schoedei” (J Nat Prod, 1997)

How the values were obtained:
Format in all cases: organism-based
Oryzias latipes [1] = assay: Ichthyotoxicity in Oryzias latipes; conditions: in vivo
Oryzias latipes [2] = assay: Toxicity in Oryzias latipes; conditions: in vivo
[3] = Toxicity in Artemia salina larvae at 30 ppm; conditions: in vivo, read-out: Activity

Row | Structure (SMILES) | LC100 (Oryzias latipes [1]) | LC50 (Oryzias latipes [2]) | mortality at 30 ppm [3]
1 | COC(=O)/C1=C/CC/C(C)=C/[C@@H]2OCC(C)=C2CC[C@@]2(C)O[C@@H]2CC1 [LOBOPHYNIN C] | 30 ppm | 22.5 ppm | 
2 | CC(=O)OCC1=C2CC/C(C)=C/CC[C@@]3(C)O[C@@H]3CC/C(C)=C/[C@H]2OC1 [LOBOPHYNIN B] |  |  | 25%
3 | CC(=O)OCC1=C\CC/C(C)=C/CC[C@@]2(C)CC[C@@](C(C)C)(\C=C\1)O2 [LOBOPHYNIN A] |  |  | 20%
